Laboratory results reported in the NIST ThermoML archive (doi:10.1021/acs.jced.8b00793).

Conditions: 100 kPa, Liquid; for viscosity: Concentric cylinders viscometry; for mass density: Vibrating tube method

CCO [ethanol]
Conditions | mass density [kg/m3] | viscosity [mPa·s]
293.15 K | 790.7 | 1.23
303.15 K | 782.2 | 1.02
313.15 K | 773.4 | 0.85
323.15 K | 760.1 | 0.71
